Measured values published in patent US20080280837A1, “Biologically Active Compounds with Anti-Angiogenic Properties” (priority 2004, published 2008).

Biological target: T1, Human SST5 somatostatin receptor (SSTR5) (Homo sapiens, UniProt P35346)
T1 construct: expressed in transfected cells; host or cells: HEK-293 EBNA
Assay: Filter plate assay for SST5 receptor, displacement of [125I]SST-14
Format: binding
Summary of the method: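 HEK-293 EBNA membranes expressing human SST5 (5.5 μg) incubated 60 min at 25 °C with 4 nM [125I]SST-14 and compound in pH 7.5 Tris/EGTA/MgCl2/sucrose buffer. Bound radioactivity collected on PEI-coated glass fiber filters and counted; triplicate 1:5 dilution series from 125 μM, non-specific binding with excess cold ligand.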

T1 sequence (P35346 whole entry): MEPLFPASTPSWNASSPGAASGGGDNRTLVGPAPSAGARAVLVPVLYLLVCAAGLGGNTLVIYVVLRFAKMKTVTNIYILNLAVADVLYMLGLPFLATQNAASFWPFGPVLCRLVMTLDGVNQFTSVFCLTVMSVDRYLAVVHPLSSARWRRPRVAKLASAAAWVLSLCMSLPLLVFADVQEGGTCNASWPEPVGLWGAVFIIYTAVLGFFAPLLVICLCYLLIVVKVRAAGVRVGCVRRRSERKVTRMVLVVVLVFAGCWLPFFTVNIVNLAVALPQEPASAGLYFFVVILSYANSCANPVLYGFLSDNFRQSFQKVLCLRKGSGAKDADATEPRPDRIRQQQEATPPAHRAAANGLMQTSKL

For `CSC1O[C@H](COCc2ccc(-c3ccccc3)cc2)[C@@H](O)[C@@H](OCc2ccc3ccccc3c2)[C@H]1NC(=O)CNC(=N)N` (stereo partly shown) [Compound 139], the “SSTR5 Inhib 0.5 uM % (inhibition of binding of SST-14 to SSTR5)” value (“SSTR5 Inhib 0.5 uM %” for short) was 34% and the “SSTR5 Inhib 10 uM % (inhibition of binding of SST-14 to SSTR5)” value (shortened to “SSTR5 Inhib 10 uM %”) was 79%.

In the case of `CSC1O[C@H](COCc2ccc(Cl)cc2)[C@@H](O)[C@@H](OCc2ccc3ccccc3c2)[C@H]1NC(=O)CN` (stereo partly shown) [Compound 167], the “SSTR5 Inhib 0.5 uM %” value is reported as 43% and the “SSTR5 Inhib 10 uM %” value is reported as 73%.

`COC[C@H]1OC(OCc2ccc3ccccc3c2)[C@H](NC(=O)CCNC(=N)N)[C@H](OCc2ccc(Cl)cc2)[C@@H]1O` (stereo partly shown) [Compound 35] was tested, and the “SSTR5 Inhib 0.5 uM %” value was 60% and the “SSTR5 Inhib 10 uM %” value was 95%.

In the case of `COC[C@H]1OC(OCc2ccccc2)[C@H](NC(=O)CCN)[C@H](OCc2ccc(Cl)cc2)[C@@H]1O` (stereo partly shown) [Compound 22], the “SSTR5 Inhib 0.5 uM %” value is reported as 80% and the “SSTR5 Inhib 10 uM %” value is reported as 96%.

With `COC[C@H]1OC(OCc2ccc(Cl)cc2)[C@H](NC(=O)CCCN)[C@@H](OCc2ccc(-c3ccccc3)cc2)[C@@H]1O` (stereo partly shown) [Compound 90] the “SSTR5 Inhib 0.5 uM %” value was 52% and the “SSTR5 Inhib 10 uM %” value was 86%.

`COC[C@H]1OC(OCCc2ccccc2)[C@H](NC(=O)CCN)[C@H](OCc2ccc(Cl)cc2)[C@@H]1O` (stereo partly shown) [Compound 34] was tested, and the “SSTR5 Inhib 0.5 uM %” value was 61% and the “SSTR5 Inhib 10 uM %” value was 95%.

For `COC1C(O)C(COCc2ccc(-c3ccccc3)cc2)OC(OCc2ccccc2)C1NC(=O)CCCNC(=N)N` (stereo not shown) [Compound 171], the “SSTR5 Inhib 0.5 uM %” value was 44% and the “SSTR5 Inhib 10 uM %” value was 72%.

In the case of `COC[C@H]1OC(OCc2ccc(Cl)cc2)[C@H](NC(=O)CCCN)[C@@H](OCc2ccc3ccccc3c2)[C@@H]1O` (stereo partly shown) [Compound 48], the “SSTR5 Inhib 0.5 uM %” value is reported as 66% and the “SSTR5 Inhib 10 uM %” value is reported as 92%.

In the case of `COC[C@H]1OC(OCc2ccccc2)[C@H](NC(=O)CCNC(=N)N)[C@H](OCc2ccc(-c3ccccc3)cc2)[C@@H]1O` (stereo partly shown) [Compound 87], the “SSTR5 Inhib 0.5 uM %” value is reported as 43% and the “SSTR5 Inhib 10 uM %” value is reported as 86%.

`COC[C@H]1OC(OCc2ccc3ccccc3c2)[C@H](NC(=O)CNC(=N)N)[C@@H](OCc2ccc3ccccc3c2)[C@@H]1O` (stereo partly shown) [Compound 137] was tested, and the “SSTR5 Inhib 0.5 uM %” value was 43% and the “SSTR5 Inhib 10 uM %” value was 79%.

For `COC[C@H]1OC(OCc2ccc3ccccc3c2)[C@H](NC(=O)CCNC(=N)N)[C@H](OCc2ccc(-c3ccccc3)cc2)[C@@H]1O` (stereo partly shown) [Compound 36], the “SSTR5 Inhib 0.5 uM %” value was 67% and the “SSTR5 Inhib 10 uM %” value was 95%.

`COC[C@H]1OC(OCc2ccccc2)[C@H](NC(=O)CCCN)[C@@H](OCc2ccc(Cl)cc2)[C@@H]1O` (stereo partly shown) [Compound 110] was tested, and the “SSTR5 Inhib 0.5 uM %” value was 45% and the “SSTR5 Inhib 10 uM %” value was 83%.

In the case of `COC1C(O)C(COCc2ccc(-c3ccccc3)cc2)OC(OCc2ccc(Cl)cc2)C1NC(=O)CNC(=N)N` (stereo not shown) [Compound 177], the “SSTR5 Inhib 0.5 uM %” value is reported as 47% and the “SSTR5 Inhib 10 uM %” value is reported as 71%.

With `CSC1O[C@H](COCc2ccccc2)[C@@H](O)[C@@H](OCc2ccc3ccccc3c2)[C@H]1NC(=O)CCCN` (stereo partly shown) [Compound 156] the “SSTR5 Inhib 0.5 uM %” value was 25% and the “SSTR5 Inhib 10 uM %” value was 76%.

With `COC[C@H]1OC(OCc2ccc3ccccc3c2)[C@H](NC(=O)CCNC(=N)N)[C@@H](OCc2ccccc2)[C@@H]1O` (stereo partly shown) [Compound 170] the “SSTR5 Inhib 0.5 uM %” value was 29% and the “SSTR5 Inhib 10 uM %” value was 72%.

In the case of `COC[C@H]1OC(OCc2ccc3ccccc3c2)[C@H](NC(=O)CCCN)[C@@H](OCc2ccc(-c3ccccc3)cc2)[C@@H]1O` (stereo partly shown) [Compound 29], the “SSTR5 Inhib 0.5 uM %” value is reported as 77% and the “SSTR5 Inhib 10 uM %” value is reported as 96%.

For `COC[C@H]1OC(OCc2ccc(-c3ccccc3)cc2)[C@H](NC(=O)CCCNC(=N)N)[C@@H](OCc2ccc(-c3ccccc3)cc2)[C@@H]1O` (stereo partly shown) [Compound 58], the “SSTR5 Inhib 0.5 uM %” value was 65% and the “SSTR5 Inhib 10 uM %” value was 91%.

With `COC[C@H]1OC(OCc2ccc(-c3ccccc3)cc2)[C@H](NC(=O)CCCNC(=N)N)[C@@H](OCc2ccc3ccccc3c2)[C@@H]1O` (stereo partly shown) [Compound 107] the “SSTR5 Inhib 0.5 uM %” value was 54% and the “SSTR5 Inhib 10 uM %” value was 83%.

For `COC[C@H]1OC(OCc2ccc3ccccc3c2)[C@H](NC(=O)CCCNC(=N)N)[C@@H](OCc2ccc3ccccc3c2)[C@@H]1O` (stereo partly shown) [Compound 75], the “SSTR5 Inhib 0.5 uM %” value was 61% and the “SSTR5 Inhib 10 uM %” value was 89%.

For `CSC1O[C@H](COCc2ccc3ccccc3c2)[C@@H](O)[C@@H](OCc2ccc(Cl)cc2)[C@H]1NC(=O)CNC(=N)N` (stereo partly shown) [Compound 116], the “SSTR5 Inhib 0.5 uM %” value was 42% and the “SSTR5 Inhib 10 uM %” value was 82%.

In the case of `CO[C@H]1[C@H](O)[C@@H](COCc2ccc3ccccc3c2)OC(OCc2ccc(Cl)cc2)[C@@H]1NC(=O)CCCN` (stereo partly shown) [Compound 121], the “SSTR5 Inhib 0.5 uM %” value is reported as 32% and the “SSTR5 Inhib 10 uM %” value is reported as 81%.

With `CSC1O[C@H](COCc2ccc3ccccc3c2)[C@@H](O)[C@@H](OCc2ccccc2)[C@H]1NC(=O)CCN` (stereo partly shown) [Compound 105] the “SSTR5 Inhib 0.5 uM %” value was 44% and the “SSTR5 Inhib 10 uM %” value was 83%.

For `COC[C@H]1OC(OCCc2ccccc2)[C@H](NC(=O)CCCNC(=N)N)[C@@H](OCc2ccc(-c3ccccc3)cc2)[C@@H]1O` (stereo partly shown) [Compound 132], the “SSTR5 Inhib 0.5 uM %” value was 39% and the “SSTR5 Inhib 10 uM %” value was 80%.

`COC[C@H]1OC(OCc2ccc3ccccc3c2)[C@H](NC(=O)CCCN)[C@H](OCc2ccccc2)[C@@H]1O` (stereo partly shown) [Compound 92] was tested, and the “SSTR5 Inhib 0.5 uM %” value was 52% and the “SSTR5 Inhib 10 uM %” value was 86%.

In the case of `COC[C@H]1OC(OCc2ccc3ccccc3c2)[C@H](NC(=O)CCCN)[C@@H](OCc2cccc(O)c2)[C@@H]1O` (stereo partly shown) [Compound 82], the “SSTR5 Inhib 0.5 uM %” value is reported as 48% and the “SSTR5 Inhib 10 uM %” value is reported as 87%.

With `CSC1O[C@H](COCc2ccc(Cl)cc2)[C@@H](O)[C@@H](OCc2ccccc2)[C@H]1NC(=O)CCNC(=N)N` (stereo partly shown) [Compound 142] the “SSTR5 Inhib 0.5 uM %” value was 44% and the “SSTR5 Inhib 10 uM %” value was 78%.

For `COC[C@H]1OC(OCc2ccc(Cl)cc2)[C@H](NC(=O)CCCNC(=N)N)[C@@H](OCc2ccc(Cl)cc2)[C@@H]1O` (stereo partly shown) [Compound 56], the “SSTR5 Inhib 0.5 uM %” value was 57% and the “SSTR5 Inhib 10 uM %” value was 91%.

In the case of `COC[C@H]1OC(OCc2ccc3ccccc3c2)[C@H](NC(=O)CCCNC(=N)N)[C@@H](OCc2ccc(Cl)cc2)[C@@H]1O` (stereo partly shown) [Compound 23], the “SSTR5 Inhib 0.5 uM %” value is reported as 80% and the “SSTR5 Inhib 10 uM %” value is reported as 96%.

`COC[C@H]1OC(OCc2ccc(Cl)cc2)[C@H](NC(=O)CCNC(=N)N)[C@H](OCc2ccc(Cl)cc2)[C@@H]1O` (stereo partly shown) [Compound 71] was tested, and the “SSTR5 Inhib 0.5 uM %” value was 49% and the “SSTR5 Inhib 10 uM %” value was 89%.

For `CSC1O[C@H](COCc2ccc3ccccc3c2)[C@@H](O)[C@@H](OCc2ccc(Cl)cc2)[C@H]1NC(=O)CCN` (stereo partly shown) [Compound 158], the “SSTR5 Inhib 0.5 uM %” value was 36% and the “SSTR5 Inhib 10 uM %” value was 75%.

For `COC[C@H]1OC(OCc2ccc(-c3ccccc3)cc2)[C@H](NC(=O)CCCNC(=N)N)[C@@H](OCc2ccc3ccccc3c2)[C@@H]1O` (stereo partly shown) [Compound 178], the “SSTR5 Inhib 0.5 uM %” value was 39% and the “SSTR5 Inhib 10 uM %” value was 71%.

For `COC[C@H]1OC(OCc2ccc3ccccc3c2)[C@H](NC(=O)CCCNC(=N)N)[C@H](OCc2ccc(Cl)cc2)[C@@H]1O` (stereo partly shown) [Compound 17], the “SSTR5 Inhib 0.5 uM %” value was 84% and the “SSTR5 Inhib 10 uM %” value was 98%.

`COC[C@H]1OC(OCc2ccc3ccccc3c2)[C@H](NC(=O)CCNC(=N)N)[C@H](OCc2ccccc2)[C@@H]1O` (stereo partly shown) [Compound 85] was tested, and the “SSTR5 Inhib 0.5 uM %” value was 54% and the “SSTR5 Inhib 10 uM %” value was 87%.

With `CO[C@H]1[C@H](O)[C@@H](COCc2ccc(Cl)cc2)OC(OCc2ccc(Cl)cc2)[C@@H]1NC(=O)CCNC(=N)N` (stereo partly shown) [Compound 152] the “SSTR5 Inhib 0.5 uM %” value was 47% and the “SSTR5 Inhib 10 uM %” value was 76%.

With `COC[C@H]1OC(OCc2ccccc2)[C@H](NC(=O)CCCN)[C@@H](OCc2cccc(O)c2)[C@@H]1O` (stereo partly shown) [Compound 144] the “SSTR5 Inhib 0.5 uM %” value was 45% and the “SSTR5 Inhib 10 uM %” value was 78%.

In the case of `COC[C@H]1OC(OCc2ccc(Cl)cc2)[C@H](NC(=O)CCCNC(=N)N)[C@@H](OCc2ccc(-c3ccccc3)cc2)[C@@H]1O` (stereo partly shown) [Compound 96], the “SSTR5 Inhib 0.5 uM %” value is reported as 43% and the “SSTR5 Inhib 10 uM %” value is reported as 85%.

In the case of `COC1C(O)C(COCc2ccc3ccccc3c2)OC(OCc2ccc(Cl)cc2)C1NC(=O)C1CCCN1` (stereo not shown) [Compound 51], the “SSTR5 Inhib 0.5 uM %” value is reported as 76% and the “SSTR5 Inhib 10 uM %” value is reported as 92%.

With `COC[C@H]1OC(OCc2ccccc2)[C@H](NC(=O)CCCN)[C@H](OCc2ccc(-c3ccccc3)cc2)[C@@H]1O` (stereo partly shown) [Compound 46] the “SSTR5 Inhib 0.5 uM %” value was 71% and the “SSTR5 Inhib 10 uM %” value was 93%.

`COC[C@H]1OC(OCCc2ccccc2)[C@H](NC(=O)CCCN)[C@@H](OCc2ccc(Cl)cc2)[C@@H]1O` (stereo partly shown) [Compound 145] was tested, and the “SSTR5 Inhib 0.5 uM %” value was 45% and the “SSTR5 Inhib 10 uM %” value was 78%.

With `COC[C@H]1OC(OCc2ccc3ccccc3c2)[C@H](NC(=O)CCCN)[C@@H](OCc2ccc(-c3ccccc3)cc2)[C@@H]1O` (stereo partly shown) [Compound 25] the “SSTR5 Inhib 0.5 uM %” value was 77% and the “SSTR5 Inhib 10 uM %” value was 96%.

`CSC1O[C@H](COCc2ccccc2)[C@@H](O)[C@@H](OCc2ccc(-c3ccccc3)cc2)[C@H]1NC(=O)CCCNC(=N)N` (stereo partly shown) [Compound 155] was tested, and the “SSTR5 Inhib 0.5 uM %” value was 46% and the “SSTR5 Inhib 10 uM %” value was 76%.
